The test system of one data set is human neutrophils. In words: TNF70–80-induced lucigenin-dependent chemiluminescence (superoxide) in neutrophils. The data set is classed as cell-based. The method, then: (§1) Neutrophil superoxide production was measured by an indirect assay involving the reduction of the lucigenin, (9, 9′-bis N-methyl-acridinium nitrate) (Sigma-Aldrich, Castle Hill, NSW, Australia) and measuring the light output by lucigenin-dependant chemiluminescence. […] After incubation, 500 μl of lucigenin (250 μM, final) was added and the final volume was adjusted to 1 ml. The cells were placed in luminometer (Autolumat Plus Model LB 953, Berthold Technologies, Bundoora, VIC, Australia) and the resulting chemiluminescence (in relative light units, RLU) measured. The results are expressed as maximal/peak rate of chemiluminescence produced unless specified otherwise. CR3 expression on neutrophils was measured by flow cytometry using anti-CD11b antibodies. […] After treatment, 2 μl of PE-labelled mouse IgG2a isotype control (Clone X39) or PE-labelled monoclonal anti-CD11b antibody (Clone D12) (both from BD Biosciences, North Ryde, NSW, Australia) was added to neutrophils in 200 μl of Isoton II (BD Biosciences) supplemented with 0.1% (w/v) BSA. After 30 min the cells were washed, fixed with formaldehyde (0.1%) and analysed on a FACScan (BD Biosciences, North Ryde, NSW, Australia). Cytokine (IL-1β and IL-8) mRNA productions were measured by quantitative RT-PCR. Briefly, total RNA was extracted from 1 × 10^6 neutrophils using the TRIzol reagent (Life Technologies Australia Pty, Mulgrave, VIC, Australia) according to the manufacturer’s instructions. RNA was converted to cDNA using iScript cDNA synthesis kit (Bio-rad, Hercules, CA, USA).

In data set [1] the target is TNF-induced neutrophil CL production (Homo sapiens, UniProt P01375). Particulars: read-out: IC50, inhibition of TNF-induced CL production; TNF (1 ng/ml) pre-treated with peptide for 30 min, human neutrophils, lucigenin chemiluminescence. The method, then: as §1
TNF-induced neutrophil CL production, sequence (P01375 whole entry): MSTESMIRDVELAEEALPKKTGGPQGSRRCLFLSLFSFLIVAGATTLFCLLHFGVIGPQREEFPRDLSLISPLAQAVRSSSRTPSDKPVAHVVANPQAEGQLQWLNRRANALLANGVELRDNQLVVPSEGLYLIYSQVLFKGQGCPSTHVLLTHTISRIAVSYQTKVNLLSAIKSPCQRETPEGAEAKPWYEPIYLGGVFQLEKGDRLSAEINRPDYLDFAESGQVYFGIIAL
TNF-induced neutrophil CL production, sequence (P19438 30-455 partner): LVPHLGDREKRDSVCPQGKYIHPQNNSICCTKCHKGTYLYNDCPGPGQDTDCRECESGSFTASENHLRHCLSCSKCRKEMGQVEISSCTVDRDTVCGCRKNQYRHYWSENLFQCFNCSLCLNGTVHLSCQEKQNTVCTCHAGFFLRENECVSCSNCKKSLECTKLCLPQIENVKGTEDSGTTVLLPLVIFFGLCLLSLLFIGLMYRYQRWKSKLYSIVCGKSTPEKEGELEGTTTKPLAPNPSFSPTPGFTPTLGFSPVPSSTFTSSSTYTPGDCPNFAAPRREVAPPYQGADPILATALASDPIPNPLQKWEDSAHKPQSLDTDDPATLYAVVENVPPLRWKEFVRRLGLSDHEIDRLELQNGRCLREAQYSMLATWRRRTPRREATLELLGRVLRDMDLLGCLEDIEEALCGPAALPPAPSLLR
Data set [2] deals with TNF-rich medium-induced superoxide production in neutrophils. In words: TNF-rich medium (RM)-induced chemiluminescence in neutrophils. The data set is classed as cell-based, human.
Experimental: Neutrophil superoxide production was measured by an indirect assay involving the reduction of the lucigenin, (9, 9′-bis N-methyl-acridinium nitrate) (Sigma-Aldrich, Castle Hill, NSW, Australia) and measuring the light output by lucigenin-dependant chemiluminescence[37]. […] After incubation, 500 μl of lucigenin (250 μM, final) was added and the final volume was adjusted to 1 ml. The cells were placed in luminometer (Autolumat Plus Model LB 953, Berthold Technologies, Bundoora, VIC, Australia) and the resulting chemiluminescence (in relative light units, RLU) measured. The results are expressed as maximal/peak rate of chemiluminescence produced unless specified otherwise.
A further data set relates to TNF. In words: Solid phase binding of TNF to coated TNFRI peptide. More on the design: species or system human. Particulars: peptide-coated plates, 50 U TNF, biotinylated anti-TNF antibody detection. As for the experimental part:
Depending on the experiment, microtitre plates were coated with 100 μl/well of either 3 μg/ml TNFRI198–211 in MilliQ water or TNFRI206–211 or the corresponding scrambled peptide in carbonate-bicarbonate buffer (pH 9.6) overnight at 4 °C and blocked with 1% BSA and 0.05% Tween-20 in PBS for 1 h at 4 °C. In the TNFRI198–211-coated plates, various concentrations of biotinylated TNF70–80 or control peptide were added to triplicate wells and incubated for 3 h at 4 °C. In the TNFRI206–211/scrambled peptide-coated plates, 50 U of TNF was added to triplicate wells, followed by washing with wash buffer (PBS/0.05% Tween-20) and then incubation with 50 μl of 1.5 μg/ml biotinylated monoclonal anti-TNF antibody (clone 2TNF-H33, ThermoScientific, Waltham, MA, USA). The wells from all plates were washed four times with wash buffer, then incubated with 100 μl/well of poly-horseradish peroxidase streptavidin conjugate (1/6000 dilution in 1% BSA and 0.05% Tween-20 in PBS) (ThermoScientific, Waltham, MA, USA) for 45 min at 4 °C. Wells were washed four times with wash buffer and bound enzyme detected by the addition of TMB substrate (Sigma-Aldrich, Castle Hill, NSW, Australia). Absorbance was measured using dual filter at 570/450 nm on a Dynatech MR700 Plate Reader (Guernsey, Channel Islands).

In data set [3] the test system is CD11b expression in neutrophils. In words: TNF-induced CD11b (CR3) expression in neutrophils, flow cytometry. In kind it is cell-based, human. To be noted: TNF (5 ng/ml) pre-treated 20 min with 200 μM peptide unless otherwise specified. As for the experimental part:
as §1, with “Briefly, total RNA was extracted from 1 × 10^6 neutrophils using the TRIzol reagent (Life Technologies Australia Pty, Mulgrave, VIC, Australia) according to the manufacturer’s instructions. RNA was converted to cDNA using iScript cDNA synthesis kit (Bio-rad, Hercules, CA, USA).” left out

Data set [4] relates to p38 activity in HEK 293T cells. In words: p38 activity in HEK 293T cells stably transfected with TRAF2, ∆TRAF2 or empty vector. Particulars: 10 μM. In kind it is cell-based. The method, then: (§2) The study was approved by the CYWHS Human Ethics Committee (project number HREC 595/12/10). Neutrophils were prepared from peripheral blood of healthy donors, who had given informed consent, by a rapid single-step technique. Blood was layered on to Hypaque-Ficoll (Pharmacia Biotech., Uppsala, Sweden), d = 1.114, and centrifuged at 600 × g for 20–30 min. After centrifugation, the leukocytes resolved into two bands and the neutrophils were harvested from the second band. The preparations of neutrophils were routinely of >99% viability and >98% purity. These were either used as cells in suspension or as adhered neutrophils by adding the cells to plasma-coated plates as previously described. The 70Z/3 pre-B cell line, kindly provided by Dr. W. Langdon, University of Western Australia, Perth, Australia, are mouse pre-B lymphocytes which lack binding sites for human TNF and are non-responsive to the cytokine[18],[19]. The cells were maintained in RPMI 1640 medium with 4.5 g/L glucose, 2 mM L-glutamine, […] 2-mercaptoethanol and 10% FCS in an atmosphere of 95% air and 5% CO2. […]
(§3) p38 activity was determined, after immunoprecipitation, as described using myelin basic protein (MPB) as a substrate for the kinase in the presence of ^32P-ATP[35]. […]

How the values of data set [5] were obtained:
TNF70–80 and its control ([…]) were synthesised by Auspep Pty Ltd, (Tullamarine, VIC, Australia) and Genscript Biotech (Piscataway, NJ, USA). […] The sequence from the natural TNF-α was modified by substitution of isoleucine for leucine at residue 79. […] Fresh dilutions of the peptide were prepared daily in HBSS or HBSS with 1% BSA. The His-tagged M4 (HM4) ∆HM4 (LKPGTT) was purchased from Auspep Pty Ltd (Tullamarine, VIC, Australia). […] Peptides were stored at −20 °C and solutions were made in HBSS or RPMI prior to use.

The test system of data set [6] is p38 activity in 70Z/3 pre-B cells. In words: p38 activity in 70Z/3 pre-B cells, mock- or TNFRI (WT/mutant)-transfected. The data set is classed as cell-based, mouse. The method, then: as §2, with “CO2. The monocytic cell line, MonoMac 6 was kindly provided by Dr. H.W.L. Ziegler-Heitbrock (Institute of Clinical Chemistry and Pathobiochemistry, Klinikum rechts der Isar, Technische Universitat, Munchen, Germany) and maintained in RPMI 1640 supplemented with 10% heat-inactivated foetal calf serum, 1 mM pyruvate, glutamine and antibiotics. A mouse fibroblastic fibrosarcoma cell line WEHI-164, clone 13 (from the ATCC) was obtained from Dr. Geeta Chauhdri (John Curtain School of Medical Research, Australian National University, Canberra, Australia). The cells were maintained in RPMI-1640 medium as above and the cells were detached with 0.25% trypsin EDTA. HEK 293T cells were maintained in DMEM, supplemented with 10% foetal calf serum.” for “CO2.”
as §3

The test system of the next data set is macrophage. Particulars: ability to stimulate nitric oxide production in macrophage; cited from earlier work. The source says:
The modification extended the serum half-life ...

In the next data set the test system is p38 MAPK. In words: p38 activation in neutrophils treated with TNF70–80. The data set is classed as cell-based, human. To be noted: neutrophils incubated 15 min with peptide. As for the experimental part:
as §2, §3

Data set [7] deals with Ross River virus (RRV)-infected mice. Particulars: cited from earlier work. The source says:
Given that the TNFR peptide sequence covers the minimal region that is required for TNF to activate p38, it is likely the peptide alters the dynamics of the TNF–TNFR interaction—allowing not only TNF binding to TNFRI, but also the activation of the other signalling molecules that the receptor normally activates. This implies that other regions of TNFRI mediate the activation of the other signalli ...

Where two headings read alike, the source gives them in different places. Residues, ends and D or L forms follow the SMILES beside them. No end group written: not given here.

Take `C[S+]([O-])c1ccc(-c2nc(-c3ccncc3)c(-c3ccc(F)cc3)[nH]2)cc1` (centres unmarked) [SB203580, reference compound]: in the data set with human neutrophils (neutrophils pre-incubated with inhibitor for 10 min before TNF70–80), the “effect on TNF70–80-induced respiratory burst response” value is on record as “inhibited”.

In the case of `C[C@@H](O)[C@H](NC(=O)[C@@H](NC(=O)CN)[C@@H](C)O)C(=O)O` [TNFRI209–211] (H-Gly-Thr-Thr-OH), the IC50 stood at 123 µM in data set [1] and 146 µM in [2].

In the case of EDSGTT [TNFRI206–211], the IC50 in data set [1] turned out to be 171 µM; in [2] (TNF-RM (conditioned medium of Staphylococcus aureus-stimulated mononuclear leukocytes, 1:10 in HBSS) treated with peptide, n = 3, read-out: IC50, inhibition of neutrophil response to TNF-rich medium), 216 µM.

On to “GEDTST [scrambled control of TNFRI206–211]”, for which the “binding to TNF, solid phase assay” value in the data set on TNF was “did not bind”. Besides, in [3], the “effect on TNF-induced CD11b expression in neutrophils” value was “Lack of effect”.

Turning to LKPGTT [∆HM4], the “effect on TNF70–80-stimulated CL production in human neutrophils” value in the data set with human neutrophils (four experiments) was “dose-dependent suppression”.

As for PSTHVLITHTI [TNF70–80], in data set [4], the “p38 activity in cells transfected with dominant-negative TRAF2 (∆TRAF2)” value is listed as “but not in those transfected with ∆TRAF2” and the “p38 activity in cells transfected with wild-type TRAF2 or an empty vector” value is reported as “enhanced the activity of p38”. Moreover, in data set [5] (after substitution of isoleucine for leucine at residue 79, no method or species printed), the serum half-life is reported as greater than 90 min. In addition, the water solubility result in data set [5] (after substitution of isoleucine for leucine at residue 79, relative to natural sequence) is listed as “increased”. Further, the “p38 activity effect in M4 TNFRI mutant-transfected cells” value in [6] (70Z/3 cells, M4 TNFRI mutant, 10 μM, p = 0.11, n = 3) is recorded as “retained, albeit appearing reduced”. Moreover, the “increase in p38 activity” value in [6] (WT TNFRI- and M1 TNFR1-transfected 70Z/3 cells, 10 μM, 5 min, three experiments) is ~ 2.5 fold. In data set [6] (untransfected (mock) cells), the “p38 activity in 70Z/3 pre-B cells lacking TNFRs” value was “failed to stimulate the activity of p38”. The “concentration that equates to 1000 U/ml of TNF” value with macrophage is 5.0 µg/mL. For the same compound, in the data set with p38 MAPK, the “p38 MAPK activation in neutrophils” value is recorded as “activation of p38 MAPK”. The “superoxide production, lucigenin-dependent chemiluminescence” value in the data set on human neutrophils (neutrophils, chemiluminescence over 45 min) is recorded as “stimulated the production of superoxide in a similar manner to TNF”.

In the case of QIENVKGTEDSGTT [TNFRI198–211], the IC50 in data set [1] is 50 µM.

As for etanercept, the “outcome in RRV-infected mice versus untreated RRV-infected mice” value in data set [7] was “decreased weight gain, higher viral titre in muscle, joints and blood, associated with a greater degree of tissue damage and inflammatory cell recruitment”.

The values above are taken from paper PMC5893557, “Small tumor necrosis factor receptor biologics inhibit the tumor necrosis factor-p38 signalling axis and inflammation” (Nature Communications, 2018).
